“And” between values parts separate entries of the source, which are not always exact repeats. Equal entries are not always repeated.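 Cells were grown in 96-well plates and exposed to each compound for 48 hours at five concentrations; endpoints were interpolated linearly between bracketing concentrations, or set to the highest concentration if not reached. GI50 is the concentration that inhibits growth by half. Definition used: TGI = concentration required for complete inhibition of growth.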
Assays:
Experiment in all cases: growth of human tumour cells (NCI), 48 h
[1] = test system: HCC-2998 colon
[2] = test system: SF-539 CNS
[3] = test system: UACC-257 melanoma
[4] = test system: KM12 colon
[5] = test system: SK-MEL-28 melanoma
[6] = test system: IGROV1 ovarian
[7] = test system: UO-31 renal
[8] = test system: CAKI-1 renal
[9] = test system: NCI-H226 lung
[10] = test system: COLO 205 colon

| Compound | TGI [1] | TGI [2] | TGI [3] | TGI [4] | TGI [5] | TGI [6] | TGI [7] | TGI [8] | TGI [9] | TGI [10] | GI50 [1] | GI50 [2] | GI50 [3] | GI50 [4] | GI50 [5] | GI50 [6] | GI50 [7] | GI50 [8] | GI50 [9] | GI50 [10] |
| --- | --- | --- | --- | --- | --- | --- | --- | --- | --- | --- | --- | --- | --- | --- | --- | --- | --- | --- | --- | --- |
| N#CC1CC2(C1)OCCS2 (stereo not given) | > 100 µM | > 100 µM | > 100 µM | > 100 µM | > 100 µM | > 100 µM | > 100 µM | > 100 µM | > 100 µM | > 100 µM |  |  |  |  |  |  |  |  |  |  |
| O=C(O)C1C(Br)(c2ccccc2)C1(Br)c1ccccc1 (stereo not given) | 53.7 µM | > 100 µM | > 100 µM | > 100 µM | 52.6 µM | > 100 µM | 47.2 µM | 81.9 µM | > 100 µM | 37.8 µM |  |  |  |  |  |  |  |  |  |  |
| COc1cc(C(=O)c2cc(C)c3[nH]c4ccc(C)cc4c3c2C)cc(OC)c1OC | > 100 µM | < 0.01 µM | > 100 µM | > 21.6 µM | > 100 µM |  | > 100 µM | > 40.5 µM | > 100 µM | 0.0369 µM | < 0.01 µM | < 0.01 µM | 4.5 µM | < 0.01 µM | 1.64 µM | < 0.01 µM | < 0.01 µM | < 0.01 µM | < 0.01 µM | < 0.01 µM |
| CC(C)C[C@H](NC(=O)/C=C/Cn1ccc2ccccc2c1=O)B(O)O | 14.2 µM | 6.45 µM | 7.02 µM | 19 µM | 36 µM | > 100 µM | > 100 µM | > 100 µM | 3.63 µM | > 100 µM | 4.38 µM | 2.16 µM | 2.12 µM | 4.54 µM | 3.85 µM | 10.8 µM | 9.45 µM | 4.95 µM | 1.76 µM | 5.93 µM |
| CC(C)(C[C@H]1CN(S(=O)(=O)c2cccc(C(F)(F)F)c2)c2cc(-c3cc(F)cc(OC(F)F)c3)ccc2O1)C(=O)O | 24.4 µM | 19.1 µM | 27.3 µM | 16.4 µM | 24.4 µM | 27.6 µM | 23.4 µM | 24.4 µM | 56 µM | 32.7 µM | 10.1 µM | 5.41 µM | 11.5 µM | 4.38 µM | 10.9 µM | 9.43 µM | 10.8 µM | 10.5 µM | 15.2 µM | 11.3 µM |
| C1C[OH+]CC[OH+]CC[OH+]CC[OH+]CC[OH+]1.[Cl-].[V] | > 100 µM | 31.6 µM | > 100 µM | > 100 µM | > 100 µM | > 100 µM | > 100 µM | > 100 µM | > 100 µM | > 100 µM | > 100 µM | 16.5 µM | 29.3 µM | 26.9 µM | 25.1 µM | 42.7 µM | 86.3 µM | 82.2 µM | 28.1 µM | > 100 µM |
| Cc1ccc(-c2nc3ccc(Cl)cc3c(=O)n2N2C(=O)CSC2c2ccccc2Cl)cc1 (stereo not given) | > 100 µM | > 100 µM | > 100 µM | > 100 µM | > 100 µM | > 100 µM | > 100 µM | > 100 µM | > 100 µM | > 100 µM | > 100 µM | > 100 µM | > 100 µM | > 100 µM | 20.6 µM | 3.69 µM | 3.66 µM | 4.82 µM | 5.14 µM | 9 µM |
| Cc1c(C(=O)/C=C/c2ccccc2)[n+](=O)c2ccccc2n1[O-] | 30.2 µM | 29.7 µM | 31.3 µM | 29.9 µM | 31 µM | 45.2 µM | 34.2 µM | 45.7 µM | 39.2 µM | 29.8 µM |  |  |  |  |  |  |  |  |  |  |
| COc1ccc2nc(NC(=O)C(=O)C(C#N)c3ccc([N+](=O)[O-])cc3)sc2c1 (stereo not given) | > 100 µM | > 100 µM | > 100 µM | > 100 µM | > 100 µM | > 100 µM | > 100 µM | > 100 µM | > 100 µM | > 100 µM |  |  |  |  |  |  |  |  |  |  |
| Nc1ccc2cc3ccc(N)cc3nc2c1 | 4.87 µM and 2.56 µM and 2.47 µM | 4.54 µM [middle of 4 runs] | 5.03 µM [middle of 4 runs] | 6.73 µM [middle of 4 runs] | 5.11 µM [middle of 4 runs] | 7.69 µM [middle of 4 runs] | 5.13 µM [middle of 4 runs] |  | 4.3 µM [middle of 4 runs] |  |  | 1.56 µM | 0.994 µM | 631 nM [middle of 4 runs] |  | 2.07 µM [middle of 4 runs] | 0.412 µM | 0.723 µM |  | 0.936 µM |
| O=C1CSC(/C(=N/Nc2ccccc2)c2nc3ccccc3[nH]2)=N1 | > 100 µM | 85.2 µM | > 100 µM | > 100 µM | 79 µM | > 100 µM | > 100 µM | 56.1 µM | 59.7 µM | > 100 µM |  |  |  |  |  |  |  |  |  |  |
| Nc1ccc(-c2nc3ccc(Cc4ccc5nc(-c6ccc(N)cc6)[nH]c5c4)cc3[nH]2)cc1 | 12.1 µM | 3.91 µM | 45.7 µM | 3.05 µM | 4.27 µM | 39.8 µM | > 100 µM | > 100 µM | 36.9 µM | 3.2 µM | 2.84 µM | 1.91 µM | 20.6 µM | 1.37 µM | 1.93 µM | 16.9 µM | 45.4 µM | 45.6 µM | 8.06 µM | 1.65 µM |
| CCNC(=O)Nc1cccc(NC(=O)NCC)n1 | > 100 µM | > 100 µM | > 100 µM | > 100 µM | > 100 µM | > 100 µM | > 100 µM | > 100 µM | > 100 µM | > 100 µM |  |  |  |  |  |  |  |  |  |  |
| N#Cc1cccnc1Cl | > 100 µM | > 100 µM | > 100 µM | > 100 µM | > 100 µM | > 100 µM | > 100 µM | > 100 µM | > 100 µM | > 100 µM |  |  |  |  |  |  |  |  |  |  |
| C[C@H](O)C(=O)N1CCC(CCn2c(Sc3cc4c(cc3Br)OCO4)nc3c(N)ncnc32)CC1 | > 43.3 µM | > 100 µM | > 100 µM | 9.86 µM | > 100 µM | > 100 µM | > 100 µM | > 100 µM | > 100 µM | > 100 µM | 0.867 µM | 1.73 µM | 2.13 µM | 0.424 µM | 1.49 µM | 1.32 µM | 2.05 µM | 2.26 µM | 4.01 µM | 0.467 µM |
| Nc1nc(F)nc2c1ncn2C1OC(CO)C(O)C1O (stereo not given) | > 100 µM | > 100 µM | > 100 µM | > 100 µM | > 100 µM | > 100 µM | > 100 µM | > 96.2 µM | > 100 µM | > 100 µM | 5.09 µM |  |  |  | > 100 µM | 74.1 µM | 5.1 µM | 6.25 µM |  | 27.8 µM |
| COc1ccc(CC2NCCc3cc(OC)c(OC)cc32)cc1Br (stereo not given) | 34.6 µM | > 100 µM | 45.6 µM | > 100 µM | 33.7 µM | > 100 µM | > 100 µM | > 100 µM | 73.9 µM | 32.6 µM |  |  |  |  |  |  |  |  |  |  |
| Br[C](Br)(Br)[Hg][c]1ccccc1 | 27.7 µM | 33.7 µM | 26.7 µM | 29.4 µM | 27.8 µM | 27.6 µM | 34.5 µM | 29.8 µM | 35.8 µM | 16.2 µM | 14.4 µM | 18 µM | 13.5 µM | 15.6 µM | 14.3 µM | 13.8 µM | 20.2 µM | 15.2 µM | 16.8 µM | 4.55 µM |
| O=C1Nc2ccc(F)cc2/C1=C/c1ccc[nH]1 | > 25 µM | > 25 µM | > 25 µM | > 25 µM | > 25 µM | > 25 µM | > 25 µM | > 25 µM | > 25 µM | > 25 µM | > 22.1 µM | > 25 µM | > 25 µM | 0.787 µM | > 25 µM | 13.4 µM | > 16.8 µM | 8.03 µM | > 25 µM | > 25 µM |
| S=C1OC2CCCC[C@H]2O1 (stereo not given in full) | > 100 µM | > 100 µM | > 100 µM | > 100 µM | > 100 µM | > 100 µM | > 100 µM | > 100 µM | > 100 µM | > 100 µM |  |  |  |  |  |  |  |  |  |  |
| O=C1CCCC[C@H]1[C@H]1CCC[C@@H]([C@H]2CCCCC2=O)C1=O | > 100 µM | > 100 µM | > 100 µM | > 100 µM | > 100 µM | > 100 µM | > 100 µM | > 100 µM | > 100 µM | > 100 µM |  |  |  |  |  |  |  |  |  |  |
| C#Cc1c(I)n(C2OC(CO[Si](C)(C)C(C)(C)C)C3OC(C)(C)OC32)c(=O)[nH]c1=O (stereo not given) | 6.38 µM | 31.4 µM | 29.8 µM | 35.6 µM | 4.43 µM | 19.1 µM | 5.49 µM | 24.8 µM | 32.5 µM | 4.8 µM | 2.36 µM | 16.6 µM | 15.2 µM | 16.9 µM | 2 µM | 4.46 µM | 1.99 µM | 11.6 µM | 17.7 µM | 2.24 µM |
| C=C1C(=O)OC2/C=C(\COC(C)=O)CCC(OC(C)=O)C3=CC(OC3=O)C12 (stereo not given) | 29.2 µM | 16.4 µM | 6.65 µM | 22.1 µM | 11.6 µM | > 56.3 µM | 35.5 µM | 10.1 µM | 46.4 µM | 6.54 µM |  |  |  |  |  |  |  |  |  |  |

From PubChem BioAssay (NCI)
